Experimental data from patent US20110039921A1 (priority 2007, published 2011).
Like-named read-outs stand apart in the source and are kept apart here.

What was measured:
Bel-7402 = experiment: MTT cytotoxicity assay, Bel-7402 cells; assay type: cell-based; details: Table 2, read-out: IC50 (mol/L) Bel-7402
Description: (§1) Experiment 1. Cytotoxicity Screening Assay at Cell Level of Compounds of this Invention
(§2) Tumor cells at log phase were incubated on 96-well plates at a density of 1˜1.2×10^4 cells/ml, 100 μl/well. 24 h later, treatment cells were exposed to the tested agents at different concentrations. Each tested agents had 4˜5 doses, and each dose had at least 3 parallel wells. Control cells were exposed to solvents in the same volume with treat agents. Cells were cultured at 37° C. in a cell incubator with 5% CO2 and 95% air atmosphere. After 4 days of culture, the incubation medium was removed, then 200 μl 0.2% MTT (prepared by RPMI 1640) was added to each well and the plates were incubated at 37° C. for 4 hours. The supernatant was discarded and dissolved the resulting formazen product with 200 μl DMSO in each well. The absorbance at a reference wavelength of 450 nm and a test wavelength of 570 nm was read on a microplate reader after tenderly shaking. Calculated drug inhibitory rate using the following equation and IC50, taking solvent exposure tumor cells as control cells.

[1] = test system: A549/Taxol: the taxol-resistant substrain of A549; experiment: cells; assay type: cell-based, human
Description: as §1, §2

[2] = test system: KB/V: the vincristine-resistant substrain of KB; experiment: cells; assay type: cell-based, human; details: Table 1; MTT, 4 days of culture; read-out: IC50(M) KB/V
Description: as §1, §2

HCT-8 = experiment: MTT cytotoxicity assay, HCT-8 cells; assay type: cell-based; details: Table 2, read-out: IC50 (mol/L) HCT-8
Description: as §1, §2

A2780 = experiment: MTT cytotoxicity assay, A2780 cells; assay type: cell-based, human; details: Table 2, read-out: IC50 (mol/L) A2780
Description: as §1, §2

[3] = test system: human gastric carcinoma BGC-823 nude mice-xenograft tumor; experiment: Growth inhibition on BGC-823-nude mice-xenograft tumor; details: for Tv x ± SD dn: dn 30 days after the first administration
Excerpt: (§3) Genera: BALB/c (nu-nu) nude mice
(§4) After one-week accommodation, animals were given subcutaneous implantation of the human lung adenocarcinoma A549 or the human ovarian cancer A2780 or the human gastric carcinoma BGC-823 cells. Animals were grouped randomly (d0) when the tumors reached 100-300 mm^3. […] Animal weights and tumor measurements were taken every […] and recorded. At the end of the study (d30 or d35), nude mice were euthanized and weighed. After the animals were sacrificed, tumor tissue was cut and weighed. Tumor volume was determined using the following equation: […]

BGC-803 = experiment: MTT cytotoxicity assay, BGC-803 cells; assay type: cell-based; details: Table 2, read-out: IC50 (mol/L) BGC-803
Description: as §1, §2

[4] = test system: A549: the human lung adenocarcinoma cell strain; experiment: cells; assay type: cell-based
Description: as §1, §2

[5] = test system: KB: the human oral epithelium cancer cell strain; experiment: cells; assay type: cell-based
Description: as §1, §2

[6] = test system: human lung adenocarcinoma A549-nude mice-xenograft tumor; experiment: Growth inhibition on A549-nude mice-xenograft tumor
Excerpt: as §3, §4

[7] = test system: human mammary adenocarcinoma cell strain MCF-7; experiment: MTT cytotoxicity assay, MCF-7 cells; assay type: cell-based; details: Table 2, read-out: IC50 (mol/L) MCF-7
Description: as §1, §2

BGC-823 = experiment: MTT cytotoxicity assay, BGC-823 cells; assay type: cell-based, human; details: Table 2, read-out: IC50 (mol/L) BGC-823
Description: as §1, §2

Lewis lung cancer = experiment: Inhibitory activity on mice Lewis lung cancer
[8] = test system: human ovarian cancer A2780-nude mice-xenograft tumor; experiment: Growth inhibition on A2780-nude mice-xenograft tumor; details: for Tv x ± SD dn: dn: 30 days after the first administration
Excerpt: as §3, §4

[9] = test system: MCF-7/D: adriamycin-resistant subline of the human mammary adenocarcinoma cell strain MCF-7; experiment: MTT cytotoxicity assay, MCF-7/D cells; assay type: cell-based; details: Table 2, read-out: IC50 (mol/L) MCF-7/D
Description: as §1, §2

## CC=C(C)C(=O)NC(c1ccccc1)C(O)C(=O)OC1CC2(O)C(OC(=O)c3cccc(N=[N+]=[N-])c3)C3C4(OC(C)=O)COC4CC(OC(=O)CC)C3(C)C(=O)C(O)C(=C1C)C2(C)C (stereo not drawn) [Example 8, 2-(3-azidobenzoyl)-7-propionyl-10-deacetyl-cephalomannine]
Bel-7402
  IC50: 8.7 nM
[1]; Table 2, MTT assay, read-out: IC50 (mol/L) A549/T
  IC50: 1.4 nM
[1]; read-out: IC50(M) A549/Taxol, Table 1, MTT, 4 days of culture
  IC50: > 1000 nM
[2]
  IC50: 2.73e-07 M
HCT-8
  IC50: 0.32 nM
A2780
  IC50: 3.6 nM
[3]; 7.5 × 4 mg/kg i.p.
  RTV: 17.45
  T/C (%): 63.84%
  Tv x ± SD d0: 101.1 ± 17.4
  Tv x ± SD dn: 2057.5 ± 1756.4
  Body weight (g) end: 26.1 g
  Body weight (g) initial: 24.7 g
[3]; 15 × 4 mg/kg i.p.
  RTV: 9.27
  T/C (%): 33.90%
  Tv x ± SD d0: 104.4 ± 16
  Tv x ± SD dn: 1156.6 ± 403.9
  Body weight (g) end: 23.8 g
  Body weight (g) initial: 25.2 g
[3]; 30 × 4 mg/kg i.p.
  RTV: 0.47
  T/C (%): 4.57%
  Tv x ± SD d0: 99.7 ± 34.3
  Tv x ± SD dn: 177.1 ± 199.0
  Body weight (g) end: 23.9 g
  Body weight (g) initial: 25.0 g
[3]; BGC-823 nude mice-xenograft tumor, comparison with taxol
  inhibition of tumor growth, conclusion in words: equal to taxol
BGC-803
  IC50: 2.4 nM
[4]; Table 1, MTT, 4 days of culture, read-out: IC50(M) A549
  IC50: 9.36e-09 M
[4]; Table 2, MTT assay, read-out: IC50 (mol/L) A549
  IC50: 9.4e-10 M
[5]; Table 1, MTT, 4 days of culture, read-out: IC50(M) KB
  IC50: 2.39e-09 M
[5]; Table 2, MTT assay, read-out: IC50 (mol/L) KB
  IC50: 4.9e-10 M
[6]; 7.5 × 3 mg/kg
  RTV: 7.2
  T/C (%): 60.7%
  Body weight (g) end: 21.8 g
  Tv x ± SD end: 3090 ± 900
  Body weight (g) initial: 21.6 g
  Tv x ± SD initial: 431 ± 94
[6]; 15 × 3 mg/kg
  RTV: 6.7
  T/C (%): 56.7%
  Body weight (g) end: 25.1 g
  Tv x ± SD end: 2897 ± 950
  Body weight (g) initial: 22.4 g
  Tv x ± SD initial: 432 ± 115
[6]; 30 × 3 mg/kg
  RTV: 4.0
  T/C (%): 33.56%
  Body weight (g) end: 23.2 g
  Tv x ± SD end: 1646 ± 450
  Body weight (g) initial: 21.8 g
  Tv x ± SD initial: 415 ± 85
[6]; A549 nude mice-xenograft tumor, comparison with taxol
  inhibition of tumor growth, conclusion in words: stronger effect
[7]
  IC50: 0.68 nM
BGC-823
  IC50: 1.3 nM
Lewis lung cancer; 2.5 × 8 mg/kg
  Inhibition (%): 27.77%
  Tumor weight (g) Average: 2.07 g
  Body weight (g) end: 22.0 g
  Body weight (g) initial: 20.0 g
Lewis lung cancer; 5 × 8 mg/kg
  Inhibition (%): 32.46%
  Tumor weight (g) Average: 1.96 g
  Body weight (g) end: 20.4 g
  Body weight (g) initial: 20.0 g
Lewis lung cancer; 10 × 8 mg/kg
  Inhibition (%): 76.08%
  Tumor weight (g) Average: 0.69 g
  Body weight (g) end: 16.8 g
  Body weight (g) initial: 19.5 g
Lewis lung cancer; Lewis lung cancer, comparison with taxol
  inhibition of tumor growth, conclusion in words: stronger effect
[8]; 7.5 × 4 mg/kg i.p.
  RTV: 7.8
  T/C (%): 80.3%
  Tv x ± SD dn: 989.3 ± 658.9
  Body weight (g) end: 25.5 g
  Body weight (g) initial: 22.4 g
[8]; 7.5 × 4 mg/kg i.p., d0
  Tv x ± SD d0: 127.6 ± 65.9
[8]; 15 × 4 mg/kg i.p.
  RTV: 6.6
  T/C (%): 68.1%
  Tv x ± SD dn: 855.6 ± 500.3
  Body weight (g) end: 25.2 g
  Body weight (g) initial: 22.0 g
[8]; 15 × 4 mg/kg i.p., d0
  Tv x ± SD d0: 130.2 ± 36.0
[8]; 30 × 4 mg/kg i.p.
  RTV: 3.4
  T/C (%): 34.9%
  Tv x ± SD dn: 529.6 ± 454.8
  Body weight (g) end: 22.3 g
  Body weight (g) initial: 22.0 g
[8]; 30 × 4 mg/kg i.p., d0 (first administration)
  Tv x ± SD d0: 157.1 ± 56.2
[8]; A2780 nude mice-xenograft tumor, comparison with taxol
  inhibition of tumor growth, conclusion in words: stronger effect
[9]
  IC50: 270 nM
